{"source": "patent US5324832A", "about": "“Muscarinic antagonists” (priority 1991, dated 1994)", "key": {"[1]": {"biological_target": "T1, m2 muscarinic receptors (Rattus norvegicus, UniProt P10980)", "T1 construct": "Rat heart tissue was the source of m2 muscarinic receptors; from tissue; host or cells: rat heart", "T1 sequence (P10980 1-466)": "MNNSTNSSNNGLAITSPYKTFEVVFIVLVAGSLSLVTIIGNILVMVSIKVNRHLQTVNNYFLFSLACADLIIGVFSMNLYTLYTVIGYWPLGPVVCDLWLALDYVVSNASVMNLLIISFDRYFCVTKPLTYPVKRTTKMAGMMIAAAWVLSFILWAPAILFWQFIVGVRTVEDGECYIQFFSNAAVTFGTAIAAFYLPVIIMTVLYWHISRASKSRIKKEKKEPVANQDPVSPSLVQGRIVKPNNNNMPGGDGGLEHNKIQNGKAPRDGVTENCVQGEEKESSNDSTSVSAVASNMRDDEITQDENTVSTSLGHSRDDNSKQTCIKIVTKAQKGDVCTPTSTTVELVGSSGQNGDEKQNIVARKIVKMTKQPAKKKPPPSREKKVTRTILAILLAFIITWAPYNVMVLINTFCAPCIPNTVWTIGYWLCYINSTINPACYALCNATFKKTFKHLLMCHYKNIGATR", "experiment": "Inhibition of [3H]NMS binding, membranes from rat heart (m2 receptors)", "conditions": "for factor by which 29a and 32d differ in affinity at m2 receptors: 29a versus 32d", "description": "(§1) The analogues were screened in binding assays using membranes from cells or tissues containing primarily single subtypes of m1 through m4 muscarinic receptors. Transfected A9L cells were used as a source of homogeneous populations of m1, m3, and m4 receptors. See Jones, S. V.; Barker, J. L.; Buckley, N. J.; Bonner, T. I; Brann, M. R., Mol. Pharmacol., 1988, 34, 421, which is specifically incorporated by reference herein. Rat heart tissue was the source of m2 muscarinic receptors.\n(§2) A crude membrane fraction was obtained as follows. Confluent cultures were rinsed three times with phosphate-buffered saline, and lysed in a solution of 2 mM Tris-HCl (pH 7.1) and 1 mM EDTA for 30 min at 2° C. The cells were harvested by scraping and homogenized on a Polytron (10 sec, 75% mix).\n(§3) Nuclei were removed in a low speed centrifugation (400 × g, 5 min) and a crude membrane preparation was obtained by centrifugation of the supernatant at 50,000 × g for 20 min. The resulting pellet was resuspended in the lysis buffer and recentrifuged at 50,000 × g for 20 min. Membranes were stored frozen at -70° C. until needed.\n(§4) The total volume was 1 mL.\n(§5) The incubation was terminated by rapid filtration over GF/B filters using a Brandel cell harvester. The filters were washed three times with ice-cold 0.9% NaCl, equilibrated in scintillation counting fluid and counted on a Beckmann LS 5801 liquid scintillation counter at 47% efficiency.\n(§6) It was routinely subtracted from the total counts."}, "[2]": {"biological_target": "T2, m1 muscarinic receptors (Rattus norvegicus, UniProt P08482)", "T2 sequence (P08482 1-460)": "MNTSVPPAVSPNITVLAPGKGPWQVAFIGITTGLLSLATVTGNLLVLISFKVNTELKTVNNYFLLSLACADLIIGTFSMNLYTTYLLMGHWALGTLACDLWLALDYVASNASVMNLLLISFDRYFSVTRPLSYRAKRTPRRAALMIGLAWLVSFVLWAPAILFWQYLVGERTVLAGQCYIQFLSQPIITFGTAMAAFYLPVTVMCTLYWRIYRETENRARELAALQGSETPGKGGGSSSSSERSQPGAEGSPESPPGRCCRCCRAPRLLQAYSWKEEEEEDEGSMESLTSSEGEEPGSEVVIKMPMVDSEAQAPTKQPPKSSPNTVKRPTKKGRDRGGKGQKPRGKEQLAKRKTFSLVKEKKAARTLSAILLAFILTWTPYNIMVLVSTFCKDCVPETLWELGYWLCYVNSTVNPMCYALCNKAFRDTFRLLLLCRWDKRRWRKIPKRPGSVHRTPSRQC", "experiment": "Inhibition of [3H]NMS binding, membranes of transfected A9L cells expressing m1 receptors", "set-up": "expressed in transfected cells; host or cells: A9L cells (obtained from Dr. M. Brann, NIH)", "conditions": "for factor by which 29a and 32d differ in affinity at m1 receptors: 29a versus 32d", "experimental": "The analogues were screened in binding assays using membranes from cells or tissues containing primarily single subtypes of m1 through m4 muscarinic receptors. Transfected A9L cells were used as a source of homogeneous populations of m1, m3, and m4 receptors. […] Rat heart tissue was the source of m2 muscarinic receptors.\nA crude membrane fraction was obtained as follows. Confluent cultures were rinsed three times with phosphate-buffered saline, and lysed in a solution of 2 mM Tris-HCl (pH 7.1) and 1 mM EDTA for 30 min at 2° C.\nas §3, §4\nThe incubation was terminated by rapid filtration over GF/B filters using a Brandel cell harvester.\nas §6"}, "[3]": {"system": "m1 through m4 muscarinic receptors", "experiment": "Displacement of [3H]NMS from muscarinic receptors (m1-m4), subtype not singled out", "format": "binding", "conditions": "in words; for receptor subtype selectivity: m1 versus m2 / among subtypes; for affinity / potency at muscarinic receptors: qualitative", "description": "as §1, §2, §3, §4, §5, §6"}, "[4]": {"biological_target": "T2, m1 muscarinic receptors", "format": "binding", "conditions": "1.0 mM compound 26, in words", "experimental": "To assay for irreversible inhibition in rat brain membranes, Scatchard analyses before and after treatment of the membranes with 26 were compared. Even a very […].\nAliquots of brain membranes were incubated with 1.0 mM of freshly dissolved 26 in phosphate-buffered saline (pH 8.0) for 60 min at room temperature, then centrifuged at 15,000 rpm for 10 min.\nThe resulting pellet was resuspended in 25 mL of fresh phosphate-buffered saline (pH 7.2) and centrifuged as above."}, "[5]": {"experiment": "Storage stability of the salt", "format": "physicochemical", "conditions": "-20 ° C.; dihydrochloride salt", "experimental": "Compound 25 (110 mg, 0.22 mmol) was refluxed for 1 h with thionyl chloride (1 mL) in chloroform (4 mL). The volatile material was removed in vacuo, and the residue was basified with aqueous Na2 CO3 (pH 10) and washed immediately with ether to completely remove the non polar impurity (TLC CHCl3 /CH3 OH/NH4 OH: 9/1/0.1, Rf 0.4). The product was extracted into CHCl3 from the cold aqueous phase and the combined CHCl3 layers were concentrated in vacuo and acidified using ether/HCl. The precipitate was dried in vacuo to yield 29 mg of 26 (25%) as a white solid: mp 188°-190° C.; 1H NMR (D20, HCl salt) δ 3.00-4.00 (m, 14 H), 7.50-7.70 (m, 3 H), 7.70-7.90 (m, 3 H), 8.40 (s, 1 H); MS (CI/NH3) m/e 400 (MH+), 212 (base), 364, 338. […] The salt was stable upon storage at -20 ° C. for at least 6 months."}, "[6]": {"biological_target": "T2, m1 muscarinic receptors", "experiment": "Irreversible labelling: [3H]NMS saturation of treated vs. control rat forebrain membranes", "format": "binding", "conditions": "in words", "experimental": "When incubated with membranes from rat forebrain tissue […] followed by thorough washing, compound 41a caused an unrecoverable reduction in the Bmax at m1 receptors of 90-95% (from saturation of treated vs. control membranes with [3H]NMS)."}, "[7]": {"system": "gastric acid production", "conditions": "clinical; in words; cited from earlier work"}, "[8]": {"conditions": "in words, versus propargyl derivative 22"}}, "note": "Entries after “also recorded” stand apart in the source; their conditions may differ.", "data": [{"compound": "O=C1Nc2cccnc2N(C(=O)CN2CCN(Cc3ccccc3)CC2)c2ccccc21", "note": "[Compound 23, 5,11-Dihydro-11-[(4-benzyl-1-piperazinyl)acetyl]-6H-pyrido[2,3-b] [1,4]benzodiazepine-6-one]", "values": [{"measurement": "affinity at m2 muscarinic receptors relative to 22", "setting": "[1]; [8]", "result": "greater affinity at m1 and m2 muscarinic receptors"}, {"measurement": "affinity at m1 muscarinic receptors relative to 22", "setting": "[2]; [8]", "result": "greater affinity at m1 and m2 muscarinic receptors"}, {"measurement": "receptor subtype selectivity", "setting": "[3]", "result": "non-selective for m1 versus m2 receptors"}]}, {"compound": "Cl.Cl.O=C1Nc2cccnc2N(C(=O)CN2CCN(CCCl)CC2)c2ccccc21", "note": "[Compound 26, 5,11-Dihydro-11-[(4-[2-chloroethyl]-1-piperazinyl)acetyl]-6H-pyrido[2,3-b][1,4]benzodiazepine-6-one dihydrochloride]", "values": [{"measurement": "change in Kd and Bmax of [3H]NMS after preincubation", "setting": "[4]", "result": "no change in the Kd and Bmax values"}, {"measurement": "irreversible inhibition of m1 receptors", "setting": "[4]; dihydrochloride", "result": "not an irreversible inhibitor of m1 receptors; also recorded: lack of irreversible inhibition"}, {"measurement": "stability of the salt upon storage", "setting": "[5]", "result": "at least 6 months"}, {"measurement": "selectivity ratio m1 versus m2 receptors", "setting": "[2]; in favor of m1 versus m2 receptors", "result": 4.4, "unit": "fold"}, {"measurement": "affinity / potency at muscarinic receptors", "setting": "[3]", "result": "high binding affinity"}, {"measurement": "receptor subtype selectivity", "setting": "[3]", "result": "retained selectivity for m1 receptors"}]}, {"compound": "CC(C)(C)OC(=O)NCCC(=O)NCCN1CCN(CC(=O)N2c3ccccc3C(=O)Nc3cccnc32)CC1", "note": "[Compound 29a]", "values": [{"measurement": "factor by which 29a and 32d differ in affinity at m2 receptors", "setting": "[1]; m2", "result": 280}, {"measurement": "factor by which 29a and 32d differ in affinity at m1 receptors", "setting": "[2]; m1", "result": 360}, {"measurement": "affinity / potency at muscarinic receptors", "setting": "[3]", "result": "inactivity"}]}, {"compound": "CC(C)(C)OC(=O)NCCCCCCN1CCN(CC(=O)N2c3ccccc3C(=O)Nc3cccnc32)CC1", "note": "[Compound 32d]", "values": [{"measurement": "factor by which 29a and 32d differ in affinity at m2 receptors", "setting": "[1]; m2", "result": 280}, {"measurement": "factor by which 29a and 32d differ in affinity at m1 receptors", "setting": "[2]; m1", "result": 360}, {"measurement": "affinity / potency at muscarinic receptors", "setting": "[3]", "result": "more potent than the corresponding free amines (34)"}]}, {"compound": "NCCCCCCCCCCN1CCN(CC(=O)N2c3ccccc3C(=O)Nc3cccnc32)CC1", "note": "[Compound 34h, 5,11-Dihydro-11-[(4-[10-aminodecyl]-1-piperazinyl)acetyl]-6H-pyrido[2,3-b][1,4]-benzodiazepine-6-one]", "values": [{"measurement": "Kd", "setting": "[1]; m2", "result": "< 20", "unit": "nM"}, {"measurement": "Kd", "setting": "[2]; m1", "result": "< 20", "unit": "nM"}, {"measurement": "affinity / potency at muscarinic receptors", "setting": "[3]", "result": "higher affinities than the corresponding derivatives with the small neutral acetylamino terminal group (35g and 35h); also recorded: most potent in the series of primary amines"}, {"measurement": "receptor subtype selectivity", "setting": "[3]", "result": "non-selective"}]}, {"compound": "O=C1Nc2cccnc2N(C(=O)CN2CCN(CCCCCCCCCCNC(=S)Nc3cccc(N=C=S)c3)CC2)c2ccccc21", "note": "[Compound 41a, n=10, 5,11-Dihydro-11-[[4-[10-[(3-isothiocyanatophenyl)aminothiocarbonylamino]decyl]-1-piperazinyl]acetyl]-6H-pyrido[2,3-b][1,4]-benzodiazepine-6-one]", "values": [{"measurement": "chemical affinity labelling of m1 receptors", "setting": "[6]", "result": "potent chemical affinity label for ml receptors"}]}, {"compound": "CN1CCN(CC(=O)N2c3ccccc3C(=O)Nc3cccnc32)CC1", "note": "[pirenzepine]", "values": [{"measurement": "inhibition of gastric acid production (literature)", "setting": "[7]", "result": "useful clinically in the inhibition of gastric acid production"}]}]}
